According to US20100105729A1, “ARYL-SUBSTITUTED HETEROCYCLIC PDE4 INHIBITORS AS ANTI-INFLAMMATORY AGENTS” (KALYPSYS, INC., priority 2006, published 2010):

Biological target: T1, PDE4B (Homo sapiens, UniProt Q07343)
T1 construct: hexa-histidine (His6) (N); made in house
Experiment: PDE4 IMAP Assay
Type: biochemical
Conditions: catalytic domain of PDE4B, fluorescence polarization
Source text: Compounds may be screened for functional potency in in vitro biochemical assays for their ability to inhibit the activity of phosphodiesterase (PDE) enzymes. A commercial PDE assay, Molecular Device's PDE IMAP assay, was modified and utilized to measure the inhibitory activity of compounds on PDE isoforms. The IMAP technology is based on the high affinity binding of phosphate by immobilized metal (MIII) coordination complexes on nanoparticles. This IMAP “binding reagent” complexes with phosphate groups on the nucleotide monophosphates generated in the reaction. Such binding causes a change in the rate of the molecular motion of the nucleotide, and results in an increase in the fluorescence polarization value observed for the fluorescent label attached to the substrate. PDE inhibitors prevent the generation of nucleotide monophosphates and the subsequent increase in polarization value observed for the fluorescent label attached to the substrate. The catalytic domain of PDE4B was fused to an amino-terminus hex-histadine affinity tag and purified. PDE4B enzyme was incubated with compounds for 10 minutes. Fluorescently labeled cyclic AMP substrates were then added to the PDE enzyme mix and incubated for 2 hours at room temperature. IMAP binding reagent was then added to the enzyme mix, incubated for 10-30 minutes and fluorescent polarization of the fluorescently labeled substrate was read either with the Perkin Elmer Viewlux or Molecular Devices Acquest or Analyst. Roflumilast and Rolipram are the positive controls used in the assay.

T1 sequence (Q07343 330-659 limits assumed, species assumed): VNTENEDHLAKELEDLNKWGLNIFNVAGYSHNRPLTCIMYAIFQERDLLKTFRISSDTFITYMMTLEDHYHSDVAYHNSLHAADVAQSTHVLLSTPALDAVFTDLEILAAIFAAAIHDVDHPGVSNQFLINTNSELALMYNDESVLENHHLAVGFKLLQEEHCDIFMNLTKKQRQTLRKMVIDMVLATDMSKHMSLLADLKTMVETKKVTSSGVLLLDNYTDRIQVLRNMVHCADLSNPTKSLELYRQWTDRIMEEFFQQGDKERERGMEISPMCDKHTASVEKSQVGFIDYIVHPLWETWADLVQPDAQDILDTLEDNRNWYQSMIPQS

inhibition at 10 µM	SMILES
≥ 50%	COc1ccc(C2CC(c3ccc(OC)c(OC)c3)=NN2C(=O)c2cccs2)cc1 (stereo not shown) [Example 41, (3-(3,4-dimethoxyphenyl)-5-(4-methoxyphenyl)-4,5-dihydro-1H-pyrazol-1-yl)(thiophen-2-yl)methanone]
< 50%	COc1ccc(C2=NN(C(C)=O)C(c3cc4ccccc4nc3Cl)C2)cc1OC (stereo not shown) [Example 28, 1-(5-(2-chloroquinolin-3-yl)-3-(3,4-dimethoxyphenyl)-4,5-dihydro-1H-pyrazol-1-yl)ethanone]
≥ 50%	COc1ccc(C2=NN(C(=O)c3ccccc3Cl)C(c3ccccc3F)C2)cc1OC (stereo not shown) [Example 34, (2-chlorophenyl)(3-(3,4-dimethoxyphenyl)-5-(2-fluorophenyl)-4,5-dihydro-1H-pyrazol-1-yl)methanone]
< 50%	COc1ccc(C2=NN(S(=O)(=O)c3ccc(C)cc3)C(c3cn(-c4ccccc4)nc3-c3ccccc3)C2)cc1OC (stereo not shown) [Example 24, 4-(3-(3,4-dimethoxyphenyl)-1-tosyl-4,5-dihydro-1H-pyrazol-5-yl)-1,3-diphenyl-1H-pyrazole]
< 50%	COc1ccc(OC)c(C2CC(c3ccc(OC)c(OC)c3)=NN2S(=O)(=O)c2ccc(C)cc2)c1 (stereo not shown) [Example 89, 5-(2,5-dimethoxyphenyl)-3-(3,4-dimethoxyphenyl)-1-tosyl-4,5-dihydro-1H-pyrazole]
≥ 50%	COc1ccc(C2=NN(C(C)=O)C(c3ccc(F)cc3)C2)cc1OC (stereo not shown) [Example 102, 1-(3-(3,4-dimethoxyphenyl)-5-(4-fluorophenyl)-4,5-dihydro-1H-pyrazol-1-yl)ethanone]
< 50%	COc1ccc(C2=NN(C(C)=O)C(c3cc4cccc(C)c4nc3Cl)C2)cc1OC (stereo not shown) [Example 76, 1-(5-(2-chloro-8-methylquinolin-3-yl)-3-(3,4-dimethoxyphenyl)-4,5-dihydro-1H-pyrazol-1-yl)ethanone]
< 50%	COc1ccc(C2=NN(C(=O)CCC(=O)O)C(c3ccc(OC)c(OC)c3)C2)cc1OC (stereo not shown) [Example 68, 4-(3,5-bis(3,4-dimethoxyphenyl)-4,5-dihydro-1H-pyrazol-1-yl)-4-oxobutanoic acid]
< 50%	COc1ccc(C2=NN(C(C)=O)C(c3cccc(OC)c3OC)C2)cc1OC (stereo not shown) [Example 101, 1-(5-(2,3-dimethoxyphenyl)-3-(3,4-dimethoxyphenyl)-4,5-dihydro-1H-pyrazol-1-yl)ethanone]
< 50%	CCC(=O)N1N=C(c2ccc(OC)c(OC)c2)CC1c1ccc(CC)cc1 (stereo not shown) [Example 20, 1-(3-(3,4-dimethoxyphenyl)-5-(4-ethylphenyl)-4,5-dihydro-1H-pyrazol-1-yl)propan-1-one]
< 50%	COc1ccc(C2=NN(C(=O)c3ccccc3Cl)C(c3cccc(OC)c3OC)C2)cc1OC (stereo not shown) [Example 30, (2-chlorophenyl)(5-(2,3-dimethoxyphenyl)-3-(3,4-dimethoxyphenyl)-4,5-dihydro-1H-pyrazol-1-yl)methanone]
< 50%	COc1ccc(C2=NN(S(C)(=O)=O)C(c3cccc(OC)c3OC)C2)cc1OC (stereo not shown) [Example 11, 5-(2,3-dimethoxyphenyl)-3-(3,4-dimethoxyphenyl)-1-(methylsulfonyl)-4,5-dihydro-1H-pyrazole]
< 50%	COc1ccc2cc(C3CC(c4ccc(OC)c(OC)c4)=NN3C(C)=O)c(Cl)nc2c1 (stereo not shown) [Example 23, 1-(5-(2-chloro-7-methoxyquinolin-3-yl)-3-(3,4-dimethoxyphenyl)-4,5-dihydro-1H-pyrazol-1-yl)ethanone]
< 50%	COc1ccc(C2=NN(C(=O)c3ccccc3Cl)C(c3ccccc3Cl)C2)cc1OC (stereo not shown) [Example 35, (2-chlorophenyl)(5-(2-chlorophenyl)-3-(3,4-dimethoxyphenyl)-4,5-dihydro-1H-pyrazol-1-yl)methanone]
< 50%	COc1ccc(C2=NN(C(C)=O)C(c3ccc(OC)c(OC)c3)C2)cc1OC (stereo not shown) [Example 100, 1-(3,5-bis(3,4-dimethoxyphenyl)-4,5-dihydro-1H-pyrazol-1-yl)ethanone]
≥ 50%	COc1ccc(C2=NN(C(=O)c3cc(OC)c(OC)c(OC)c3)C(c3ccc(Br)cc3)C2)cc1OC (stereo not shown) [Example 44, (5-(4-bromophenyl)-3-(3,4-dimethoxyphenyl)-4,5-dihydro-1H-pyrazol-1-yl)(3,4,5-trimethoxyphenyl)methanone]
≥ 50%	COc1ccc(C2CC(c3ccc(OC)c(OC)c3)=NN2C(=O)c2ccccc2Cl)cc1 (stereo not shown) [Example 33, (2-chlorophenyl)(3-(3,4-dimethoxyphenyl)-5-(4-methoxyphenyl)-4,5-dihydro-1H-pyrazol-1-yl)methanone]

inhibition at 10 µM	SMILES
< 50%	COc1ccc(C2=NN(S(=O)(=O)c3ccccc3)C(c3ccccc3OC)C2)cc1OC (stereo not shown) [Example 61, 3-(3,4-dimethoxyphenyl)-5-(2-methoxyphenyl)-1-(phenylsulfonyl)-4,5-dihydro-1H-pyrazole]
< 50%	COc1ccc(C2=NN(C(=O)CCC(=O)O)C(c3ccc(F)cc3)C2)cc1OC (stereo not shown) [Example 72, 4-(3-(3,4-dimethoxyphenyl)-5-(4-fluorophenyl)-4,5-dihydro-1H-pyrazol-1-yl)-4-oxobutanoic acid]
< 50%	COc1ccc(C2=NN(S(=O)(=O)c3ccccc3)C(c3cccc([N+](=O)[O-])c3)C2)cc1OC (stereo not shown) [Example 53, 3-(3,4-dimethoxyphenyl)-5-(3-nitrophenyl)-1-(phenylsulfonyl)-4,5-dihydro-1H-pyrazole]
≥ 50%	COc1ccc(C2=NN(C(=O)c3cccs3)C(c3cccc(OC)c3OC)C2)cc1OC (stereo not shown) [Example 38, (5-(2,3-dimethoxyphenyl)-3-(3,4-dimethoxyphenyl)-4,5-dihydro-1H-pyrazol-1-yl)(thiophen-2-yl)methanone]
< 50%	COc1ccc(C2=NN(S(=O)(=O)c3ccc(C)cc3)C(c3ccc(F)cc3)C2)cc1OC (stereo not shown) [Example 55, 3-(3,4-dimethoxyphenyl)-5-(4-fluorophenyl)-1-tosyl-4,5-dihydro-1H-pyrazole]
< 50%	COc1ccc2cc(C3CC(c4ccc(OC)c(OC)c4)=NN3C(=O)c3ccccc3Cl)c(Cl)nc2c1 (stereo not shown) [Example 16, (5-(2-chloro-7-methoxyquinolin-3-yl)-3-(3,4-dimethoxyphenyl)-4,5-dihydro-1H-pyrazol-1-yl)(2-chlorophenyl)methanone]
< 50%	CCc1ccc(C2CC(c3ccc(OC)c(OC)c3)=NN2C(=O)CCCC(=O)O)cc1 (stereo not shown) [Example 18, 5-(3-(3,4-dimethoxyphenyl)-5-(4-ethylphenyl)-4,5-dihydro-1H-pyrazol-1-yl)-5-oxopentanoic acid]
< 50%	COc1ccc(C2=NN(C(=O)CCCC(=O)O)C(c3ccc(C)cc3)C2)cc1OC (stereo not shown) [Example 96, 5-(3-(3,4-dimethoxyphenyl)-5-p-tolyl-4,5-dihydro-1H-pyrazol-1-yl)-5-oxopentanoic acid]
< 50%	COc1ccc(C2=NN(C(=O)CCC(=O)O)C(c3cc4ccccc4nc3Cl)C2)cc1OC (stereo not shown) [Example 27, 4-(5-(2-chloroquinolin-3-yl)-3-(3,4-dimethoxyphenyl)-4,5-dihydro-1H-pyrazol-1-yl)-4-oxobutanoic acid]
< 50%	COc1ccc2cc(C3CC(c4ccc(OC)c(OC)c4)=NN3C(=O)c3ccco3)c(Cl)nc2c1 (stereo not shown) [Example 10, (5-(2-chloro-7-methoxyquinolin-3-yl)-3-(3,4-dimethoxyphenyl)-4,5-dihydro-1H-pyrazol-1-yl)(furan-2-yl)methanone]
< 50%	COc1ccc(C2=NN(S(=O)(=O)c3ccc(C)cc3)C(c3ccccc3OC)C2)cc1OC (stereo not shown) [Example 93, 3-(3,4-dimethoxyphenyl)-5-(2-methoxyphenyl)-1-tosyl-4,5-dihydro-1H-pyrazole]
< 50%	COc1ccc(C2=NN(C(=O)CCC(=O)O)C(c3ccccc3)C2)cc1OC (stereo not shown) [Example 99, 4-(3-(3,4-dimethoxyphenyl)-5-phenyl-4,5-dihydro-1H-pyrazol-1-yl)-4-oxobutanoic acid]
< 50%	COc1ccc(C2=NN(S(=O)(=O)c3ccc(C)cc3)C(c3cccc(OC)c3OC)C2)cc1OC (stereo not shown) [Example 91, 5-(2,3-dimethoxyphenyl)-3-(3,4-dimethoxyphenyl)-1-tosyl-4,5-dihydro-1H-pyrazole]
< 50%	COc1ccc(OC)c(C2CC(c3ccc(OC)c(OC)c3)=NN2C(=O)CCCC(=O)O)c1 (stereo not shown) [Example 64, 5-(5-(2,5-dimethoxyphenyl)-3-(3,4-dimethoxyphenyl)-4,5-dihydro-1H-pyrazol-1-yl)-5-oxopentanoic acid]
< 50%	COc1ccc(C2=NN(S(=O)(=O)c3ccccc3)C(c3ccccc3F)C2)cc1OC (stereo not shown) [Example 58, 3-(3,4-dimethoxyphenyl)-5-(2-fluorophenyl)-1-(phenylsulfonyl)-4,5-dihydro-1H-pyrazole]
< 50%	COc1ccc(C2=NN(C(=O)CCCC(=O)O)C(c3ccc(F)cc3)C2)cc1OC (stereo not shown) [Example 65, 5-(3-(3,4-dimethoxyphenyl)-5-(4-fluorophenyl)-4,5-dihydro-1H-pyrazol-1-yl)-5-oxopentanoic acid]
< 50%	COc1ccc(C2=NN(S(C)(=O)=O)C(c3ccc(C)cc3)C2)cc1OC (stereo not shown) [Example 13, 3-(3,4-dimethoxyphenyl)-1-(methylsulfonyl)-5-p-tolyl-4,5-dihydro-1H-pyrazole]
